Assay: Anticancer human tumor 997537-175-T-J1-PDC patient-derived colon adenocarcinoma cell line growth inhibition [POLQ]
Details: 997537-175-T-J1-PDC complex spheroid viability, combination with POLQ inhibitors; for IC50: curve of first compound; for viability, T/C: stronger effect = lower value
Method in brief: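 Growth inhibition in 3D: complex spheroids (tumor PDC, HUVEC, MSC) treated with POLQ inhibitor combinations; where Cmax unknown, highest tested concentration 10 microM, except SN-38 at 1 microM.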
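Note: luminescence signal used as a surrogate for viable cells; spheroids exposed to drugs for seven days before readout.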

## CC(=O)O[C@H]1C(=O)[C@@]2(C)[C@H]([C@H](OC(=O)c3ccccc3)[C@]3(O)C[C@H](OC(=O)[C@H](O)[C@@H](NC(=O)c4ccccc4)c4ccccc4)C(C)=C1C3(C)C)[C@]1(OC(C)=O)CO[C@@H]1C[C@@H]2O + Nc1ccc(C#CCN(C(=O)Cc2ncc(C(F)(F)F)cc2C(F)(F)F)c2ccc(F)cc2)nn1
Second compound 0.0316 µM
  IC50: 27 nM
Second compound 0.1 µM
  IC50: 50.1 nM
Second compound 0.316 µM
  IC50: 16.8 nM
Second compound 1 µM
  IC50: 14.8 nM
Second compound 3.16 µM
  IC50: 32.5 nM
Second compound 10 µM
  IC50: 18.5 nM
Second compound 0.0316 µM, first compound 0.00949 µM
  viability, T/C: 50.5%
Second compound 0.0316 µM, first compound 0.03 µM
  viability, T/C: 57.6%
Second compound 0.0316 µM, first compound 0.0949 µM
  viability, T/C: 32.5%
Second compound 0.0316 µM, first compound 0.3 µM
  viability, T/C: 55.7%
Second compound 0.0316 µM, first compound 0.949 µM
  viability, T/C: 33.8%
Second compound 0.0316 µM, first compound 3 µM
  viability, T/C: 34.3%
Second compound 0.1 µM, first compound 0.00949 µM
  viability, T/C: 70%
Second compound 0.1 µM, first compound 0.03 µM
  viability, T/C: 28.4%
Second compound 0.1 µM, first compound 0.0949 µM
  viability, T/C: 58%
Second compound 0.1 µM, first compound 0.3 µM
  viability, T/C: 46.9%
Second compound 0.1 µM, first compound 0.949 µM
  viability, T/C: 23.3%
Second compound 0.1 µM, first compound 3 µM
  viability, T/C: 23.3%
Second compound 0.316 µM, first compound 0.00949 µM
  viability, T/C: 69.7%
Second compound 0.316 µM, first compound 0.03 µM
  viability, T/C: 27.3%
Second compound 0.316 µM, first compound 0.0949 µM
  viability, T/C: 27.9%
Second compound 0.316 µM, first compound 0.3 µM
  viability, T/C: 16.8%
Second compound 0.316 µM, first compound 0.949 µM
  viability, T/C: 41.3%
Second compound 0.316 µM, first compound 3 µM
  viability, T/C: 37.1%
Second compound 1 µM, first compound 0.00949 µM
  viability, T/C: 55.2%
Second compound 1 µM, first compound 0.03 µM
  viability, T/C: 44.6%
Second compound 1 µM, first compound 0.0949 µM
  viability, T/C: 31.6%
Second compound 1 µM, first compound 0.3 µM
  viability, T/C: 25.8%
Second compound 1 µM, first compound 0.949 µM
  viability, T/C: 30.1%
Second compound 1 µM, first compound 3 µM
  viability, T/C: 38.3%
Second compound 3.16 µM, first compound 0.00949 µM
  viability, T/C: 54.5%
Second compound 3.16 µM, first compound 0.03 µM
  viability, T/C: 48.2%
Second compound 3.16 µM, first compound 0.0949 µM
  viability, T/C: 44.2%
Second compound 3.16 µM, first compound 0.3 µM
  viability, T/C: 36%
Second compound 3.16 µM, first compound 0.949 µM
  viability, T/C: 24.6%
Second compound 3.16 µM, first compound 3 µM
  viability, T/C: 31%
Second compound 10 µM, first compound 0.00949 µM
  viability, T/C: 68.6%
Second compound 10 µM, first compound 0.03 µM
  viability, T/C: 35.8%
Second compound 10 µM, first compound 0.0949 µM
  viability, T/C: 37.6%
Second compound 10 µM, first compound 0.3 µM
  viability, T/C: 33.4%
Second compound 10 µM, first compound 0.949 µM
  viability, T/C: 38.5%
Second compound 10 µM, first compound 3 µM
  viability, T/C: 23.9%

From PubChem BioAssay AID1963825 (Molecular Pharmacology Branch, DTP, NCI, 2024)
